{"source": "paper PMC12049818", "about": "“Identification of NUV-244 as a PNPLA3 I148M degrading small molecule” (iScience, 2025)", "format_in_all_cases": "cell-based", "key": {"PNPLA3 I148M-tagRFP [1]": {"target": "T1, PNPLA3 I148M-tagRFP (Homo sapiens, UniProt Q9NST1, I148M)", "T1 construct": "host or cells: Huh7", "T1 sequence (Q9NST1 1-481 I148M)": "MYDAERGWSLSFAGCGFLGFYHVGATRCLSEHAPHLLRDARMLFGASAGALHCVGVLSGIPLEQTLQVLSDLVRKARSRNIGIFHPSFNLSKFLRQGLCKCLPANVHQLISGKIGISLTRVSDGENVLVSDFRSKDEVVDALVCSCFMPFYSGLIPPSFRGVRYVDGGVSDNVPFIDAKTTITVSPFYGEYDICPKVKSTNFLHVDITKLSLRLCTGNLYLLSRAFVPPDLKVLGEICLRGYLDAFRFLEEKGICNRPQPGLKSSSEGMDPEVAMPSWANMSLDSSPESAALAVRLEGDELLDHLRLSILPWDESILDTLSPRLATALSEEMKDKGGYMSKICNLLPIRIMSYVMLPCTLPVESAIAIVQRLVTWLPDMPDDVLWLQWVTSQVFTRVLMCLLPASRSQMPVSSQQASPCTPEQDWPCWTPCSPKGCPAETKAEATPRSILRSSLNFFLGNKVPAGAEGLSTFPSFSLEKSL", "assay": "Western blot anti-PNPLA3, Huh7 PNPLA3 I148M-tagRFP", "conditions": "5µM, 24h", "experimental": "For SDS-PAGE and subsequent western blotting cells were harvested in 1x lysis buffer (50 mM Tris-Cl, pH 7.5, 150 mM NaCl, 1 mM EDTA, 1% Triton X-100) supplemented with complete mini protease inhibitor cocktail (Roche). Total protein concentration of samples was determined with a Bicinchoninic Acid (BCA) protein assay. Cell lysates were boiled for 10 min at 99°C with 1x NuPAGE LDS Sample Buffer and loaded onto a 4-12% Tris-Glycine SDS-PAGE gel. For immunoblotting proteins were transferred to a nitrocellulose membrane (0.2 μm pore size, Schleicher & Schuell) and blocked with Intercept (PBS) Blocking buffer (Licor), incubated with primary antibodies anti-PNPLA3 (1:500, C-8 Santa Cruz, SC-390252), anti-PNPLA3 (1:1000, Millipore, MABS2174) and anti-HSP90 (1:1000, Cell Signaling, #4877), and subsequently incubated with secondary antibodies IRDye 680 or IRDye 800 (1:2000; LI-COR Biosciences). Infrared signal was detected using the Odyssey imaging system (Licor). […]\na. Huh7, PNPLA3 I148M b. Huh7, PNPLA3 I148M-tagRFP […]\ncontrol NUV-244 control NUV-244\nSupplemental Fig. 9: Western Blot NUV-244 a. […] PNPLA3 bands at 53kDa (unmodified in a.) or 80 kDa (PNPLA3 I148M-tagRFP) were quantified (signal above local background, normalized to loading control using LICOR Odyssey CLx / Image Studio) on two independent Western Blots and percent of intensity compared to DMSO controls calculated (Mean +/ - Stdev). […]"}, "PNPLA3 I148M-tagRFP [2]": {"target": "T1, PNPLA3 I148M-tagRFP", "assay": "Time-lapse imaging of PNPLA3 I148M-tagRFP on lipid droplets in Huh7 cells", "conditions": "1μM or 5μM; Huh7", "experimental": "To evaluate the kinetics of NUV-244 mediated reduction and degradation of PNPLA3 I148M-tagRFP, we performed time-lapse studies to follow PNPLA3 I148M-tagRFP over time (Figures 5A and 5B). 1μM or 5μM NUV-244 leads to rapid onset of reduction of PNPLA3 I148M-tagRFP on lipid droplets with half maximum effect reached after approximately 2h. To evaluate if PNPLA3 I148M-tagRFP degradation is 26S proteasome dependent, 1μM Bortezomib was co-incubated with NUV-244. Proteasome inhibition prevents PNPLA3 I148M-tagRFP reduction from lipid droplets (Figures 5A and 5B). […] A recent paper identified the E3 ligase responsible for the turnover of endogenous PNPLA3, the ER associated E3 ligase BFAR.[18]\nHuh7 cells expressing PNPLA3 I148M-tagRFP were seeded at 4000 cells/well in 30 μL media in 384-well imaging plates (Revvity, PhenoPlate) and stored in a 37°C incubator with 5% CO2 and 95% humidity overnight. Cells were then incubated with Bodipy diluted in growth medium (38nM final concentration) for 1h at 37°C with 5% CO2 and 95% humidity. Cells were treated with DMSO control, 1 μM or 5 μM NUV-244, with or without 1 μM Bortezomib or 5 μM MLN7243. Cells were imaged every 15 minutes over a 20-hour period using an Opera Phenix confocal spinning disc microscope system (Revvity) with a 20x water objective at 561 nm (tagRFP) and 488 nm (BODIPY). Images were analyzed using Harmony software. PNPLA3 I148M-tagRFP intensity on lipid droplets was quantified and compared between treatments."}, "PNPLA3 I148M": {"target": "T2, PNPLA3 I148M (Homo sapiens, UniProt Q9NST1, I148M)", "T2 sequence (Q9NST1 1-481 I148M)": "T1 sequence (Q9NST1 1-481 I148M)", "assay": "Huh7 untagged PNPLA3 I148M immunofluorescence on lipid droplets", "set-up": "host or cells: Huh7", "conditions": "anti-PNPLA3 IF; representative curve, Figure 3E", "experimental": "Even though C-terminal tagging is reported not to interfere with PNPLA3 localization,[20] we established an assay to exclude the possibility that C-terminal tagging of PNPLA3 with tagRFP could alter PNPLA3 response to NUV-244 on lipid droplets. For this we generated Huh7 cell lines that express untagged variants of PNPLA3 I148M or PNPLA3 WT and visualized PNPLA3 on lipid droplets by immunofluorescence (Figures 3C, 3D, and S3A).\nCells were fixed with 4% paraformaldehyde for 15 minutes at room temperature. Cells were blocked with 0.2 M glycine, 0.1 mg/mL saponin, and 30 mg/mL bovine serum albumin (BSA) (all Sigma Aldrich) in PBS for 1 hour. Cells were washed 1x with washing buffer (0,1 mg/ml saponin + 1 mg/ml Bovine serum albumin) using a Blue Washer (Blue Cat Bio). Mouse anti-human ADPN (PNPLA3, C-8, #sc-390252, Santa Cruz) and rabbit anti-human PNPLA2 (Sigma Aldrich, #HPA055173-25UL) primary antibodies and appropriate secondary antibodies conjugated with Alexa-Fluor 647 (Jackson ImmunoResearch) were used. […]\nImages were acquired by an Opera Phenix confocal spinning disc microscope system (Revvity, Waltham, MA, USA) with a 20x or 40x water objective at 405 nm (Hoechst), 488 nm (BODIPY) and 647 nm. Quantification was carried out with the Harmony (Revvity, Waltham, MA, USA) or MetaXpress software (Molecular Devices). […]"}}, "data": [{"smiles": "Cc1cccc(Cc2nc(C)c(C(=O)Nc3cc(O)ccc3Cl)s2)c1", "note": "[NUV-244]", "values": [{"measurement": "PNPLA3 band intensity printed on the blot shown (DMSO 100%)", "setting": "PNPLA3 I148M-tagRFP [1]; single blot shown in Fig. S9b", "value": 72, "unit": "%"}, {"measurement": "PNPLA3 band, percent of intensity compared to DMSO controls", "setting": "PNPLA3 I148M-tagRFP [1]; two independent Western Blots, Mean +/- Stdev", "value": "46+/-4%"}, {"measurement": "time to half maximum effect of reduction of PNPLA3 I148M-tagRFP on lipid droplets", "setting": "PNPLA3 I148M-tagRFP [2]", "value": "approximately 2 h"}, {"measurement": "EC50", "setting": "PNPLA3 I148M", "value": 153, "unit": "nM"}]}]}
